Reference: patent US20100216761A1, “NOVEL AZETIDINONES USEFUL AS INHIBITORS OF ELASTASE” (priority 2007, published 2010)
“And” between values parts separate entries of the source, which are not always exact repeats. Equal entries are not always repeated. Where two headings read alike, the source gives them in different places.

Experiments:
CYP-P450 3A4 = molecular target: T1, CYP-P450 3A4 (Homo sapiens, UniProt P08684); assay: CYP-P450 reversible inhibition, 3A4; assay type: in vitro ADME; settings: human liver microsomes or recombinant P450 microsomes; fluorescent probe
T1 construct: host or cells: human liver microsomes or recombinant P450 microsomes
T1 sequence (P08684 whole entry): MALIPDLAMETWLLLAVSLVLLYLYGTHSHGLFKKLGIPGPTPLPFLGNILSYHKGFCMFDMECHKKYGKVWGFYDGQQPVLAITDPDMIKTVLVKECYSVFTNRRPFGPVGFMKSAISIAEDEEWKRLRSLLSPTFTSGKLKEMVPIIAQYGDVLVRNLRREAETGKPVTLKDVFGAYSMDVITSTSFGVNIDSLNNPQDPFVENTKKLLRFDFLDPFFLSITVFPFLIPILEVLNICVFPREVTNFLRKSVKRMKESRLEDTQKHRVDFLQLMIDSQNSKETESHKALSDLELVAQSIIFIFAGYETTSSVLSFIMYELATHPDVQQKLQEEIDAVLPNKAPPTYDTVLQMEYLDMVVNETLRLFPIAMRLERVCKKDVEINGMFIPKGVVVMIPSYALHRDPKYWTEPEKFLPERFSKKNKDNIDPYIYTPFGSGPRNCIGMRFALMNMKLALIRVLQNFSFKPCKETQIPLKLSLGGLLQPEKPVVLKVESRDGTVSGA
Experimental: (§1) This assay measured the reversible inhibition of the test compounds against three cytochrome P450 isozymes (CYP-P450 3A4, 2C9 and 2D6) in an automated screening formate. […] Cumene hydroperoxide, NADPH or NADPH regenerating systems can be used as electron donors for the P450 catalytic cycle. Control incubations containing no inhibitor or no fluorescent probe were performed to evaluate the 100% and 0% activities, respectively. The activity of P450 enzyme was evaluated in the presence of 0.137, 0.273, 0.547, 1.094, 2.188, 4.375, 8.750, 17.5, 35.0 and 70.0 μM concentrations of the test compounds. Inhibition curves were generated and IC50 values were calculated for each tested compound using standard techniques.

Rat pharmacokinetics = assay type: in vivo, Sprague-Dawley rats; settings: for Vd / clearance / half-life / AUCN, i.v. dosing @ 1 mpk: iv, 1 mg/kg; for AUCN, p.o. dosing @ 2 mpk: po, 2 mg/kg
Experimental: As exemplified in Table 7, the in vivo pharmacokinetic profiles for Examples 1 and 3 and the comparator Compound #290 were determined in the rat at the standard screening doses of 1 mpk i.v. and 2 mpk p.o. (Note 10).
Compounds were formulated as their mono-L-malic acid salts at 1 mg/mL in PEG-200:water 70:30 (v:v) and administered to Sprague-Dawley rats (n=2 for i.v. and n=3 for p.o. arms) at a dose of 1 mg/kg i.v. or 2 mgk p.o. (free base equivalent). Blood samples were taken at 0.03, 0.08, 0.25, 0.50, 1, 2, 4, 6, 8 and 24 hours for the i.v. arm and at 0.25, 0.50, 1, 2, 4, 6, 8 and 24 hours for the p.o. arm. The plasma concentrations of test compound at each time point were determined by protein precipitation with acetonitrile followed by liquid chromatography—tandem mass spectrometry versus a standard curve. The PK parameters were calculated using validated techniques known in the literature (see Stedman's Medical Dictionary, 23rd ed.).

[1] = Human liver microsome stability (Assays #1-#4); assay type: in vitro ADME; settings: substrate 1 μM, 37° C.; for % Left @ 30 min / half-life at 1 μM: Assay #1; for % Left @ 30 min / % Left Assay 3 @ 0 min / % Left Assay 3 @ 5 min / % Left Assay 3 @ 10 min / % Left Assay 3 @ 15 min / % Left Assay 3 @ 30 min / % Left Assay 3 @ 60 min / half-life at 1 μM: protein 0.1 mg/mL; for % Left (+NADPH) @ 0 min / % Left (+NADPH) @ 5 min / % Left (+NADPH) @ 10 min / % Left (+NADPH) @ 15 min / % Left (+NADPH) @ 30 min / % Left (+NADPH) @ 60 min / % Left (−NADPH) @ 0 min / % Left (−NADPH) @ 60 min: Assay #4, protein 1.0 mg/mL; for % Left (−NADPH) @ 0 min / % Left (−NADPH) @ 60 min: −NADPH control; for half-life at 1 μM: human, liver microsomes
Experimental: The results for Examples 1 and 3 were t112=87 and 32 minutes with 78% and 60% remaining after 30 minutes, respectively, compared to shorter half-lives and lesser amounts left for Examples 2 and 4-6 (see Note 6 for conditions).
Under similar in vitro human liver microsome preparation stability assay conditions at 37° C. for 30 or 60 minutes in a separate head-to-head experiments (Assay #2 and #3) (see Note 6 for conditions) with Examples 1 and 3 and the comparator Compound #290 from U.S. Pat. No. 5,591,737, the amounts left after the 30 minute incubation (with […] microsome protein vs 0.1 mg/mL for Assay #3) were 67, 99 and 79% and for the 60 minute incubation were 94, 73 and 77%, respectively. Similarly, in a third repeat assay (Assay #4 with—NADPH controls) (see Note 6 for conditions), 90 and 72% were remaining for Example 1 and the comparator compound, respectively. […]
Note 6: Human Liver Microsome Assay # 1-3 conditions. • Assay experiment #1: Substrate concentration=1 μM; Protein concentration=0.1 mg/mL; incubation time=30 minutes at 37° C. • Assay experiment #2: Substrate concentration=1 μM; Protein concentration 0.1 mg/mL; incubation time=30 minutes at 37° C. • Assay experiment #3: Substrate concentration=1 μM; Protein concentration=0.1 mg/mL; incubation time=60 minutes at 37° C. • Assay experiment #4: Substrate concentration=1 μM; Protein concentration=1.0 mg/mL; incubation time=60 minutes at 37° C.

CYP-P450 2C9 = molecular target: T2, CYP-P450 2C9 (Homo sapiens, UniProt P11712); assay: CYP-P450 reversible inhibition, 2C9; assay type: in vitro ADME; settings: human liver microsomes or recombinant P450 microsomes; fluorescent probe
T2 construct: host or cells: human liver microsomes or recombinant P450 microsomes
T2 sequence (P11712 whole entry): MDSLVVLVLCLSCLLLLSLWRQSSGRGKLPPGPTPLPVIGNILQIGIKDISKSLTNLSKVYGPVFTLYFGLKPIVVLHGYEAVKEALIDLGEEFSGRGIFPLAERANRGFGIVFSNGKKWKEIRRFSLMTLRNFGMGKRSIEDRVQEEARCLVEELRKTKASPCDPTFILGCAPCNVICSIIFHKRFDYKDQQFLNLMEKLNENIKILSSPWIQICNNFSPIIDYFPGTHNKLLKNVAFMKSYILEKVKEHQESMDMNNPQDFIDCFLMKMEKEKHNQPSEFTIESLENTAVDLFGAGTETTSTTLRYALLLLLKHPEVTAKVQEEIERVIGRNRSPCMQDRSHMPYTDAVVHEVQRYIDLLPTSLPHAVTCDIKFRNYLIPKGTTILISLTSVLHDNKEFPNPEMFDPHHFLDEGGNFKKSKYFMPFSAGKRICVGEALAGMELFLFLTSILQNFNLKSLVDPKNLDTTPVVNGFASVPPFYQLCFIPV
Experimental: as §1

CYP-P450 2D6 = molecular target: T3, CYP-P450 2D6 (Homo sapiens, UniProt P10635); assay: CYP-P450 reversible inhibition, 2D6; assay type: in vitro ADME; settings: human liver microsomes or recombinant P450 microsomes; fluorescent probe
T3 construct: host or cells: human liver microsomes or recombinant P450 microsomes
T3 sequence (P10635 whole entry): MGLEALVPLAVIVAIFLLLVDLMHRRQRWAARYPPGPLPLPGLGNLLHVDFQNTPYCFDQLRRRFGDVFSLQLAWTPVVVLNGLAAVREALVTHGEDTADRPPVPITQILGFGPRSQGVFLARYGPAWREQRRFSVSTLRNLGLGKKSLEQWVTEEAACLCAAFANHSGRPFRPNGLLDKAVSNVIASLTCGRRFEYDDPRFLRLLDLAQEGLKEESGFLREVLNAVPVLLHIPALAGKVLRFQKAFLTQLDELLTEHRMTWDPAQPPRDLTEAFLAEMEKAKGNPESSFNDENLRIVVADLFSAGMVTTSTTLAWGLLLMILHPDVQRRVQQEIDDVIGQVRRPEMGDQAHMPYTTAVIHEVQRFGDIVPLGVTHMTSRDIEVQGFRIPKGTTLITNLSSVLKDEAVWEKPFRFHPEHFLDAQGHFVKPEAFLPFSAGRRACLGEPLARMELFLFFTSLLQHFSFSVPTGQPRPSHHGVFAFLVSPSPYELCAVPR
Experimental: as §1

Compound | IC50 (CYP-P450 3A4) [µM] | F (Rat pharmacokinetics; Sprague-Dawley, in vivo) [%] | Vd (Rat pharmacokinetics; Sprague-Dawley, in vivo) [L/kg] | clearance (Rat pharmacokinetics; Sprague-Dawley, in vivo) [mL/min/kg] | AUCN, i.v. dosing @ 1 mpk (Rat pharmacokinetics; in vivo) [μMhrkg/mg] | AUCN, p.o. dosing @ 2 mpk (Rat pharmacokinetics; in vivo) [μMhrkg/mg] | % Left Assay 2 @ 0 min [1] [%] | % Left Assay 2 @ 2.5 min [1] [%] | % Left Assay 2 @ 5 min [1] [%] | % Left Assay 2 @ 10 min [1] [%] | % Left Assay 2 @ 15 min [1] [%] | % Left Assay 2 @ 30 min [1] | % Left Assay 3 @ 0 min [1] [%] | % Left Assay 3 @ 5 min [1] [%] | % Left Assay 3 @ 10 min [1] [%] | % Left Assay 3 @ 15 min [1] [%] | % Left Assay 3 @ 30 min [1] [%] | % Left Assay 3 @ 60 min [1] | IC50 (CYP-P450 2C9) [µM] | IC50 (CYP-P450 2D6) [µM] | also measured
CCC[C@@H](NC(=O)N1C(=O)C(CC)(CC)[C@@H]1Oc1ccc(C(=O)N(CC)CCN(C)C)cc1)c1ccc(OC(F)(F)F)cc1 [Example 1, 2-(S)-[4-(((2-(Dimethylamino)ethyl)ethylamino)carbonyl)phenoxy]-3,3-diethyl-N-[1-(R)-(4-(trifluoromethoxy)phenyl)butyl]-4-oxo-1-azetidinecarboxamide] | 46 | 25 | 11 | 42 | 0.65 | 0.16 | 100 | 78 | 78 | 73 | 70 | 67% and 67 +/− 2% | 100 | 101 | 79 | 90 | 100 | 94% and 94 +/− 10% | 17 | 37 | half-life (Rat pharmacokinetics; Sprague-Dawley, in vivo): 3.1 h; % Left @ 30 min [1]: 78%; % Left (+NADPH) @ 0 min [1]: 100%; % Left (+NADPH) @ 5 min [1]: 104%; % Left (+NADPH) @ 10 min [1]: 99%; % Left (+NADPH) @ 15 min [1]: 96%; % Left (+NADPH) @ 30 min [1]: 91%; % Left (+NADPH) @ 60 min [1]: 90% and 90 +/− 4%; % Left (−NADPH) @ 0 min [1]: 87 +/− 21%; % Left (−NADPH) @ 60 min [1]: 99 +/− 2%; half-life at 1 μM [1]: 1.45 h
CCC[C@@H](NC(=O)N1C(=O)C(CC)(CC)[C@@H]1Oc1ccc(C(=O)N(C)CCN(C)C)cc1)c1ccc(OC)cc1 [Compound #290, reference compound] | 62 | 29 | 14.5 | 114 | 0.28 | 0.081 | 100 | 99 | 95 | 89 | 82 | 79% and 79 +/− 6% | 100 | 90 | 88 | 85 | 83 | 77% and 77 +/− 4% | 25 | 39 | half-life (Rat pharmacokinetics; Sprague-Dawley, in vivo): 2 h; % Left (+NADPH) @ 0 min [1]: 100%; % Left (+NADPH) @ 5 min [1]: 92%; % Left (+NADPH) @ 10 min [1]: 89%; % Left (+NADPH) @ 15 min [1]: 84%; % Left (+NADPH) @ 30 min [1]: 78%; % Left (+NADPH) @ 60 min [1]: 72% and 72 +/− 0%; % Left (−NADPH) @ 0 min [1]: 89 +/− 5%; % Left (−NADPH) @ 60 min [1]: 83 +/− 1%
CCC[C@@H](NC(=O)N1C(=O)C(CC)(CC)[C@@H]1Oc1ccc(C(=O)N(CC)CCN(C)C)cc1)c1ccc(C(F)(F)F)cc1 [Example 3, 2-(S)-[4-(((2-(Dimethylamino)ethyl)ethylamino)carbonyl)phenoxy]-3,3-diethyl-N-[1-(R)-(4-(trifluoromethyl)phenyl)butyl]-4-oxo-1-azetidinecarboxamide] | 39 | 28 |  | 113 | 0.24 | 0.069 | 100 | 107 | 85 | 82 | 82 | 99% and 79 +/− 7% | 100 | 86 | 81 | 75 | 75 | 73% and 73 +/− 0% | 8.1 | 41 | Vd (Rat pharmacokinetics; Sprague-Dawley, in vivo, i.v. 1 mpk, mono-L-malic acid salts, read-out: VDss): 29 L/kg; half-life (Rat pharmacokinetics; Sprague-Dawley, in vivo, i.v. 1 mpk, mono-L-malic acid salts, read-out: t1/2 (converted)): 3.7 h; F (Rat pharmacokinetics; oral bioavailability, p.o. 2 mpk vs i.v. 1 mpk): 28%; % Left @ 30 min [1]: 60%; half-life at 1 μM [1]: 0.533 h
